Read-outs that look alike come from different tables or passages of the source.
Columns and labels:
STAT6 = biological target: T1, STAT6 (Homo sapiens, UniProt P42226); assay: STAT6 Reporter Luciferase Assay (IL-13 stimulated HaCaT keratinocyte NanoLuc reporter cells); format: cell-based; conditions: read-out: Reporter EC50
T1 construct: stably transfected HaCaT keratinocyte cell line, which expresses NanoLuc luciferase reporter gene under the transcriptional control of the STAT6 responsive promoter; endogenous in cells; host or cells: HaCaT keratinocyte reporter cell line (stably transfected with a NanoLuc reporter)
T1 sequence (P42226 1-847): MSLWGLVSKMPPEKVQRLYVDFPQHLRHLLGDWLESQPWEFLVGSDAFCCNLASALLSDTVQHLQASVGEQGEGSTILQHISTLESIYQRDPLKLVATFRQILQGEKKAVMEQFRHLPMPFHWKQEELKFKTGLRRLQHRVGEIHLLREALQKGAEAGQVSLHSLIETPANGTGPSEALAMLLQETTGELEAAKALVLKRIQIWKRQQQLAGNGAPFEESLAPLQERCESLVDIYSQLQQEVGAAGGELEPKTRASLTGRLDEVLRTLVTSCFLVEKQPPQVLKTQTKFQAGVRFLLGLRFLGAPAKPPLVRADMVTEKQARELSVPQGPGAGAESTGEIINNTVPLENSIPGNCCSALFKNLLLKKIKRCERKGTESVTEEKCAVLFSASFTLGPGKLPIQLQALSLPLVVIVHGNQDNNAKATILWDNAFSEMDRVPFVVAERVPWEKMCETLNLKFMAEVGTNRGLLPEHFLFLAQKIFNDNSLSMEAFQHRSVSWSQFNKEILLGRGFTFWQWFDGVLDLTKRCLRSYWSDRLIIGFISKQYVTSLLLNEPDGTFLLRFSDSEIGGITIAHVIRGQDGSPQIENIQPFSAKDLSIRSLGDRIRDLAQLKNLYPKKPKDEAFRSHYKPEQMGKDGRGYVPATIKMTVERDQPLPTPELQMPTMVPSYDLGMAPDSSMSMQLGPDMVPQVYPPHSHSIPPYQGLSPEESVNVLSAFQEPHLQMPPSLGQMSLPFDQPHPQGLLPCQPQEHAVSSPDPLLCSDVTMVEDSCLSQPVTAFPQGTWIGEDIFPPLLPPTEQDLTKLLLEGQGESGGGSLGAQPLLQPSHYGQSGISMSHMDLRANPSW
Outline: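 Stably transfected HaCaT cells carrying NanoLuc under the STAT6-responsive IL-13Ra2 promoter were pre-treated with compound (11-point, 4-fold series, duplicate) for 2 h at 37 °C, then stimulated with 0.12 nM IL-13 for 4 h. Nano-Glo luminescence was read after 15 min.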

[1] = system: CCL17 secretion in peripheral human whole blood; assay: Human Whole Blood (HWB) CCL17 TR-FRET Assay (IL-13 stimulated CCL17 secretion); format: cell-based
Outline: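 TR-FRET sandwich immunoassay (665/615 nm ratio) read CCL17 in serum from heparinized whole blood after 16 h RT detection. Blood was exposed to compound for 2 h at 37 °C, then to 10 ng/mL IL-13 (final) for 48 h. IC50 from 11-point, 3-fold titrations in duplicate.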

[2] = STAT6 NanoLuc luciferase reporter, IL-13 stimulated HaCaT keratinocyte cells
[3] = Homo sapiens, 48 h, inhibition of CCL17 secretion in human whole blood, 10 ng/mL IL13, 48 hours
[4] = IL-13 stimulated HaCaT STAT6 NanoLuc reporter cells
[5] = Homo sapiens, 48 h, human whole blood, IL-13 stimulated

Row | SMILES | EC50 (STAT6; [2]) | IC50 [1, 3] | EC50 (STAT6; [4]) | IC50 [1, 5] | IC50 ([1]; human whole blood, IL-13 stimulated, 48 hours)
1 | CC(C)n1nc(C(=O)NCc2ccc(NC(=O)N3CCC(OCCO)CC3)cc2)c2c1CCN(c1ccc(C(=O)N(C)C)cn1)C2 [Example 162, 5-(5-(dimethylcarbamoyl)pyridin-2-yl)-N-(4-(4-(2-hydroxyethoxy)piperidine-1-carboxamido)benzyl)-1-isopropyl-4,5,6,7-tetrahydro-1H-pyrazolo[4,3-c]pyridine-3-carboxamide] | 11 nM | 66 nM | – | – | –
2 | CC(C)n1nc(C(=O)NCc2ccc(NC(=O)N3CC(C)(N)C3)cc2)c2c1CCN(c1ccc(C(=O)N(C)C)cn1)C2 [Example 163, N-(4-(3-amino-3-methylazetidine-1-carboxamido)benzyl)-5-(5-(dimethylcarbamoyl)pyridin-2-yl)-1-isopropyl-4,5,6,7-tetrahydro-1H-pyrazolo[4,3-c]pyridine-3-carboxamide] | 16 nM | 30 nM | – | – | –
3 | COC1(C)CN(C(=O)Nc2ccc(CNC(=O)c3nn(C(C)C)c4c3CN(c3ccc(C(=O)N(C)C)cn3)CC4)cc2)C1 [Example 165, 5-(5-(dimethylcarbamoyl)pyridin-2-yl)-1-isopropyl-N-(4-(3-methoxy-3-methylazetidine-1-carboxamido)benzyl)-4,5,6,7-tetrahydro-1H-pyrazolo[4,3-c]pyridine-3-carboxamide] | 14 nM | 156 nM | – | – | –
4 | CO[C@H]1CN(C(=O)Nc2ccc(CNC(=O)c3nn(C(C)C)c4c3CN(c3ccc(C(=O)N(C)C)cn3)CC4)cc2)C[C@@H]1O [Example 166, 5-(5-(dimethylcarbamoyl)pyridin-2-yl)-N-(4-((3S,4S)-3-hydroxy-4-methoxypyrrolidine-1-carboxamido)benzyl)-1-isopropyl-4,5,6,7-tetrahydro-1H-pyrazolo[4,3-c]pyridine-3-carboxamide] | 4 nM | 21 nM | – | – | –
5 | CC(C)n1nc(C(=O)NCc2ccc(NC(=O)N3CCO[C@@H](CO)C3)cc2)c2c1CCN(c1ccc(C(=O)N(C)C)cn1)C2 [Example 167, (R)-N-(4-((5-(5-(dimethylcarbamoyl)pyridin-2-yl)-1-isopropyl-4,5,6,7-tetrahydro-1H-pyrazolo[4,3-c]pyridine-3-carboxamido)methyl)phenyl)-2-(hydroxymethyl)morpholine-4-carboxamide] | 29 nM | 154 nM | – | – | –
6 | CC(C)n1nc(C(=O)NCc2ccc(NC(=O)N(C)CC3COC3)cc2)c2c1CCN(c1ccc(C(=O)N(C)C)cn1)C2 [Example 168, 5-(5-(dimethylcarbamoyl)pyridin-2-yl)-1-isopropyl-N-(4-(3-methyl-3-(oxetan-3-ylmethyl)ureido)benzyl)-4,5,6,7-tetrahydro-1H-pyrazolo[4,3-c]pyridine-3-carboxamide] | 24 nM | 111 nM | – | – | –
7 | CC(C)n1nc(C(=O)NCc2ccc(NC(=O)N[C@H]3C[C@@H](O)C3)cc2)c2c1CCN(c1ccc(C(=O)N(C)C)cn1)C2 [Example 169] | 32 nM | 125 nM | – | – | –
8 | CC(C)n1nc(C(=O)NCc2ccc(NC(=O)N3CC[C@H](N(C)C)C3)cc2)c2c1CCN(c1ccc(C(=O)N(C)C)cn1)C2 [Example 170, (S)-N-(4-(3-(dimethylamino)pyrrolidine-1-carboxamido)benzyl)-5-(5-(dimethylcarbamoyl)pyridin-2-yl)-1-isopropyl-4,5,6,7-tetrahydro-1H-pyrazolo[4,3-c]pyridine-3-carboxamide] | 17 nM | 82 nM | – | – | –
9 | CC(C)n1nc(C(=O)NCc2ccc(NC(=O)N3CCC(C)(C#N)CC3)cc2)c2c1CCN(c1ccc(C(=O)N(C)C)cn1)C2 [Example 172, N-(4-(4-cyano-4-methylpiperidine-1-carboxamido)benzyl)-5-(5-(dimethylcarbamoyl)pyridin-2-yl)-1-isopropyl-4,5,6,7-tetrahydro-1H-pyrazolo[4,3-c]pyridine-3-carboxamide] | 11 nM | 150 nM | – | – | –
10 | CC(C)n1nc(C(=O)NCc2ccc(NC(=O)N3CCOCC3)cc2)c2c1CCN(c1ccc(C(=O)N(C)C)cn1)C2 [Example 173, N-(4-((5-(5-(dimethylcarbamoyl)pyridin-2-yl)-1-isopropyl-4,5,6,7-tetrahydro-1H-pyrazolo[4,3-c]pyridine-3-carboxamido)methyl)phenyl)morpholine-4-carboxamide] | 11 nM | 72 nM | – | – | –
11 | CC(C)n1nc(C(=O)NCc2ccc(NC(=O)N3CCC(CO)CC3)cc2)c2c1CCN(c1ccc(C(=O)N(C)C)cn1)C2 [Example 175, 5-(5-(dimethylcarbamoyl)pyridin-2-yl)-N-(4-(4-(hydroxymethyl)piperidine-1-carboxamido)benzyl)-1-isopropyl-4,5,6,7-tetrahydro-1H-pyrazolo[4,3-c]pyridine-3-carboxamide] | 7 nM | 67 nM | – | – | –
12 | CC(C)n1nc(C(=O)NCc2ccc(NC(=O)N3CCN(C)CC3)cc2)c2c1CCN(c1ccc(C(=O)N(C)C)cn1)C2 [Example 177, 5-(5-(dimethylcarbamoyl)pyridin-2-yl)-1-isopropyl-N-(4-(4-methylpiperazine-1-carboxamido)benzyl)-4,5,6,7-tetrahydro-1H-pyrazolo[4,3-c]pyridine-3-carboxamide] | 8 nM | 51 nM | – | – | –
13 | COCCNC(=O)Nc1ccc(CNC(=O)c2nn(C(C)C)c3c2CN(c2ccc(C(=O)N(C)C)cn2)CC3)cc1 [Example 178, 5-(5-(dimethylcarbamoyl)pyridin-2-yl)-1-isopropyl-N-(4-(3-(2-methoxyethyl)ureido)benzyl)-4,5,6,7-tetrahydro-1H-pyrazolo[4,3-c]pyridine-3-carboxamide] | 7 nM | 45 nM | – | – | –
14 | CO[C@@H]1CCN(C(=O)Nc2ccc(CNC(=O)c3nn(C(C)C)c4c3CN(c3ccc(C(=O)N(C)C)cn3)CC4)cc2)C1 [Example 179, (R)-5-(5-(dimethylcarbamoyl)pyridin-2-yl)-1-isopropyl-N-(4-(3-methoxypyrrolidine-1-carboxamido)benzyl)-4,5,6,7-tetrahydro-1H-pyrazolo[4,3-c]pyridine-3-carboxamide] | 7 nM | 64 nM | – | – | –
15 | CC(C)n1nc(C(=O)NCc2ccc(NC(=O)N(C)CCO)cc2)c2c1CCN(c1ccc(C(=O)N(C)C)cn1)C2 [Example 180, 5-(5-(dimethylcarbamoyl)pyridin-2-yl)-N-(4-(3-(2-hydroxyethyl)-3-methylureido)benzyl)-1-isopropyl-4,5,6,7-tetrahydro-1H-pyrazolo[4,3-c]pyridine-3-carboxamide] | 18 nM | 55 nM | – | – | –
16 | CC(C)n1nc(C(=O)NCc2ccc(NC(=O)NCC3COC3)cc2)c2c1CCN(c1ccc(C(=O)N(C)C)cn1)C2 [Example 181, 5-(5-(dimethylcarbamoyl)pyridin-2-yl)-1-isopropyl-N-(4-(3-(oxetan-3-ylmethyl)ureido)benzyl)-4,5,6,7-tetrahydro-1H-pyrazolo[4,3-c]pyridine-3-carboxamide] | 260 nM | 436 nM | – | – | –
17 | CC(C)n1nc(C(=O)NCc2ccc(NC(=O)N3CC[C@H](C#N)C3)cc2)c2c1CCN(c1ccc(C(=O)N(C)C)cn1)C2 [Example 182, (S)-N-(4-(3-cyanopyrrolidine-1-carboxamido)benzyl)-5-(5-(dimethylcarbamoyl)pyridin-2-yl)-1-isopropyl-4,5,6,7-tetrahydro-1H-pyrazolo[4,3-c]pyridine-3-carboxamide] | – | – | 17 nM | 131 nM | –
18 | CC(C)n1nc(C(=O)NCc2ccc(NC(=O)N3CC[C@@H](C#N)C3)cc2)c2c1CCN(c1ccc(C(=O)N(C)C)cn1)C2 [Example 183, (R)-N-(4-(3-cyanopyrrolidine-1-carboxamido)benzyl)-5-(5-(dimethylcarbamoyl)pyridin-2-yl)-1-isopropyl-4,5,6,7-tetrahydro-1H-pyrazolo[4,3-c]pyridine-3-carboxamide] | – | – | 16 nM | 67 nM | –
19 | CC(C)n1nc(C(=O)NCc2ccc(NC(=O)N3CC4CC(C3)O4)cc2)c2c1CCN(c1ccc(C(=O)N(C)C)cn1)C2 [Example 184, N-(4-((5-(5-(dimethylcarbamoyl)pyridin-2-yl)-1-isopropyl-4,5,6,7-tetrahydro-1H-pyrazolo[4,3-c]pyridine-3-carboxamido)methyl)phenyl)-6-oxa-3-azabicyclo[3.1.1]heptane-3-carboxamide] | – | – | 27 nM | – | 92 nM

— patent publication US20250320213A1, “Nitrogen-Containing Heterocyclic Compounds” (Pfizer Inc., priority 2024, published 2025)
